US20260008768A1, “UREA DERIVATIVES FOR INHIBITING NLRP3 AND USES THEREOF” (VENTUS THERAPEUTICS U.S., INC., priority 2023, published 2026)

Assays:
[1] = molecular target: T1, human NLRP3 (Homo sapiens, UniProt Q96P20); assay: Human PBMC NLRP3 Assay (LPS priming, ATP stimulation, cytokine measurement); assay type: cell-based; parameters: host or cells: human PBMCs (A2); human whole blood from healthy volunteers (A3); details: human PBMC, LPS + ATP
Experimental: Reagents: Human PBMCs (Normal): iXCells Cat #10HU-003; RPMI 1640 medium with GlutaMAX: ThermoFisher Cat #61870127 (Complete Media: 4.5 g/L D-glucose, 10% FBS, 100 mM NaPyr, 1% Pen/Strep, 10 mM HEPES and 0.05 mM of ®-mercaptoethanol; Assay Media: 4.5 g/L D-glucose, 100 mM NaPyr, 1% Pen/Strep, 10 mM HEPES and 0.05 mM of mercaptoethanol; 96-well V-bottom Plates: Costar Cat #3894; LPS (E. coli O26:B6): Sigma Cat #L2654, stock 5 mg/mL in PBS; ATP: Sigma Cat #A6419, prepared in a 250 mM stock in 1 M HEPES (adjusted to pH 7.4).
Cryopreserved PBMCs were rapidly thawed in a 37° C. water bath for 2 min. Cells were then centrifuged at 1200 RPM for 5 min and resuspended in ˜50 mL of fresh RPMI 1640 Complete Medium. A count was undertaken using a hemocytometer and adjusted to 2.5×10^5 cells/mL. V-shaped 96-well plates were seeded with 200 μL of PBMCs (5×10^4) per well and subsequently incubated overnight at 37° C. with 5% CO2. Assay Media was then prepared containing 100 ng/ml of LPS. PBMCs were then centrifuged at 1,200 RPM for 5 min, serum containing media was aspirated, and 150 μL/well of Assay Media+LPS was immediately added. Assay Media without LPS was added in the untreated control wells. Cells were then primed with LPS for 4 h at 37° C. with 5% CO2. A concentration response curve (CRC) was prepared of 1000× test compound in 100% DMSO. The CRC was then diluted 1:50 in Assay Media and then further diluted by 1:5× in Assay Media resulting in a final 4×CRC in 0.4% DMSO/Assay Media. 50 μL/well of 4× test compound CRC or vehicle (0.4% DMSO/Assay Media) was then transferred into each well and subsequently incubated for 30 min at 37° C. with 5% CO2. Cells were stimulated by adding 4 μL of 250 mM ATP, using a 250 mM stock prepared in 1 M Hepes without further dilution (for a final concentration of 5 mM), for 1 h at 37° C. with 5% CO2 Plates were then centrifuged at 1200 RPM for 5 min; and 50 μl of the media was transferred to a clean 96-well storage plate for cytokine measurements using the mesoscale platform, and stored at −80° C. until analyzed. Compounds were added 30 minutes before priming the cells with LPS when TNFα was required to be quantified in the cytokine panel to confirm selectivity.
PBMC NLRP3 IC50 assay results, as a measurement of cellular potency, are provided in Table B. “A” activity=<0.01 uM; “B” activity=0.01-0.1 uM; “C” activity=>0.1-0.5 uM; “D” activity=>0.5 uM.

[2] = molecular target: T1, human NLRP3; assay: Human Whole Blood (hWB) NLRP3 Assay (LPS/ATP, IL-1β); assay type: cell-based; parameters: host or cells: human whole blood from healthy volunteers (A3)
Experimental: Human whole blood is drawn from healthy volunteers after obtaining written informed consent. Heparin lithium coated tubes are used to collect blood from volunteers. Blood samples are distributed on 96 well plates using 90 μl per well.
Priming procedure: Priming is performed by adding 5 μl of LPS (O26:B6; Sigma L-2654) at a final concentration of 1 μg/ml for 4.5 hours in a humidified incubator with 37° C., 5% CO2. Thirty minutes prior to NLRP3 activation, 5 μl of a 20× compound solution or vehicle (2% dimethylsulfoxide (DMSO)) is added to each well and plates were incubated on a shaker (450 rpm) in a humidified incubator with 37° C., 5% CO2.
Alternative priming procedure: Thirty minutes prior to LPS priming, 5 μl of a 20× compound solution or vehicle (2% dimethylsulfoxide (DMSO)) is added to each well and plates were incubated on a shaker (450 rpm) in a humidified incubator with 37° C., 5% CO2. Priming is performed by adding 5 μl of LPS (O26:B6; Sigma L-2654) at a final concentration of 1 μg/ml for 5 hours in a humidified incubator with 37° C., 5% CO2.
Activation is then performed by adding 3.3 μl of a 31×ATP solution per well. At the end of the 30 minutes stimulation, the plates are centrifuged (800 g, 10 min, room temperature) and the plasma from each well is frozen at −80° C. IL-1β levels in the supernatant were analyzed using a mesoscale discovery assay (MSD K151TUK) according to the manufacturers' instructions.
There is no detectable difference in assay results using the priming procedure versus the alternative priming procedure.
hWB NLRP3 IC50 assay results, as a measurement of whole blood potency, are provided in Table B. “A” activity=<1 uM; “B” activity=1-2 uM; “C” activity=>2-3 uM; “D” activity=>3 uM.

[3] = molecular target: T1, human NLRP3; assay: Scintillation Proximity (SPA) NLRP3 Assay, displacement of 3H-MCC950; assay type: binding; details: for IC50: displacement of 3H-MCC950 from human NLRP3
Procedure, shortened: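 Displacement of radioligand 3H-MCC950 (125 nM final) from 350 nM human NLRP3, read by scintillation proximity after 6 h equilibration with PVT beads. Buffer: 20 mM HEPES pH 7.5, 150 mM NaCl, 5 mM MgCl2, 100 μM ADP; compound preincubated 15 min, ligand 60 min, RT. IC50 from specific binding.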

T1 sequence (Q96P20 whole entry): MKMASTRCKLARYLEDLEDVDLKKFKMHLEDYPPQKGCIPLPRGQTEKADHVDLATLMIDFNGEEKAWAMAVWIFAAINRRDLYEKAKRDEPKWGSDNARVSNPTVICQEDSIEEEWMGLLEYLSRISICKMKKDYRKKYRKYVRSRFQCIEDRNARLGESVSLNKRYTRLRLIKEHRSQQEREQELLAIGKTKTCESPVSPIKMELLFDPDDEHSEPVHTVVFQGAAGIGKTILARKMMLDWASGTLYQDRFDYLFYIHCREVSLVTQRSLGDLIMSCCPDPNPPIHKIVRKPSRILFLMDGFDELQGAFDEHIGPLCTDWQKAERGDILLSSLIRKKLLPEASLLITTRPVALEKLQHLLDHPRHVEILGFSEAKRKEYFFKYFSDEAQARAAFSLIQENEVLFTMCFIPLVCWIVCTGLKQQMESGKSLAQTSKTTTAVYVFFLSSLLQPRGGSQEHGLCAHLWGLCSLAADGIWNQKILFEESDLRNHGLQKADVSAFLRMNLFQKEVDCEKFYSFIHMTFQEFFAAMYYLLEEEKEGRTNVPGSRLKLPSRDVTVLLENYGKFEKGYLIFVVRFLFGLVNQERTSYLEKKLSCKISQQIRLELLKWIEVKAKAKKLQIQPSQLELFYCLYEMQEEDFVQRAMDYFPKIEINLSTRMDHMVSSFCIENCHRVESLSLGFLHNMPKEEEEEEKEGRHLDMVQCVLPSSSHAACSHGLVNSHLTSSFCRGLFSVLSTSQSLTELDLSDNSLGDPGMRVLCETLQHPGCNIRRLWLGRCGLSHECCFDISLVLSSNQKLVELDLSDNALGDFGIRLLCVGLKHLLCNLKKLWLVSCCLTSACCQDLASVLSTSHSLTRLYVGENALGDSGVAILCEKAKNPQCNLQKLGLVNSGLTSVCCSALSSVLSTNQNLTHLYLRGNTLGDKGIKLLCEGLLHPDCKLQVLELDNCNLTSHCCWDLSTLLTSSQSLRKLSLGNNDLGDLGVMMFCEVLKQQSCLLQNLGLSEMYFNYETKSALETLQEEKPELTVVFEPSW

Row | SMILES | IC50 ([1]; Table B, activity class) | IC50 ([1]; Table C) | IC50 ([2]; Table B, activity class) | IC50 ([2]; Table C) | IC50 ([3]; Table B, activity class) | IC50 ([3]; Table C) | fold improvement in binding activity (SPA IC50) ([3]; relative to Compound 27A*) | fold increase in binding activity (SPA IC50) ([3]; relative to Compound 39A)
1 | C[C@@H]1CCN(c2nnn[nH]2)C[C@H](NC(=O)N(C)c2ccc(Cl)cc2F)C1 (single isomer, unassigned) [5A*] | < 10 nM | 4 nM | < 1000 nM | 36 nM | < 1000 nM | 71 nM | > 19 fold | 
2 | C[C@@H]1CCN(c2nnn[nH]2)C[C@H](NC(=O)N(C)c2ccc(Cl)c(F)c2)C1 (single isomer, unassigned) [12A*] | 10 to 100 nM |  | 2000 to 3000 nM |  | < 1000 nM |  |  | 
3 | C[C@@H]1C[C@@H](NC(=O)N(C)c2ccc(OC(F)F)cc2)[C@H]2CC[C@@H]1N2c1nnn[nH]1 (single isomer, unassigned) [42A*] | < 10 nM | 4.1 nM | < 1000 nM | 290 nM | < 1000 nM | 65 nM |  | 
4 | C[C@@H]1C[C@@H](NC(=O)N(C)c2ccc(OC(F)(F)F)cc2)[C@H]2CC[C@@H]1N2c1nnn[nH]1 (single isomer, unassigned) [45A*] |  |  | < 1000 nM | 420 nM |  | 110 nM |  | > 12 fold
5 | C[C@@H]1C[C@@H](NC(=O)N(C)c2ccc(C(F)(F)F)c(F)c2F)[C@H]2CC[C@@H]1N2c1nnn[nH]1 (single isomer, unassigned) [47A*] |  |  | 1000 to 2000 nM |  | < 1000 nM |  |  | 
6 | C[C@@H]1C[C@@H](NC(=O)N(C)c2ccc(C(F)(F)F)cc2F)[C@H]2CC[C@@H]1N2c1nnn[nH]1 (single isomer, unassigned) [48A*] |  |  | < 1000 nM |  | < 1000 nM |  |  | 
7 | C[C@@H]1C[C@@H](NC(=O)N(C)c2ccc(OC(F)(F)F)c(F)c2)[C@H]2CC[C@@H]1N2c1nnn[nH]1 (single isomer, unassigned) [51A*] |  |  | 1000 to 2000 nM |  | < 1000 nM |  |  | 
8 | C[C@@H]1C[C@@H](NC(=O)N(C)c2ccc(C(F)F)cc2F)[C@H]2CC[C@@H]1N2c1nnn[nH]1 (single isomer, unassigned) [55A*] |  |  | < 1000 nM |  | < 1000 nM |  |  | 
9 | C[C@@H]1C[C@@H](NC(=O)N(C)c2ccc(OC(F)(F)F)cc2F)[C@H]2CC[C@@H]1N2c1nnn[nH]1 (single isomer, unassigned) [56A*] |  |  | < 1000 nM |  | < 1000 nM |  |  | 
10 | C[C@@H]1C[C@@H](NC(=O)N(C)c2ccc(OC(F)(F)F)c(OC(F)F)c2)[C@H]2CC[C@@H]1N2c1nnn[nH]1 (single isomer, unassigned) [63A*] |  |  | 2000 to 3000 nM |  | < 1000 nM |  |  | 
11 | CCN(C(=O)N[C@@H]1C[C@@H](C)[C@@H]2CC[C@H]1N2c1nnn[nH]1)c1ccc(OC(F)F)cc1F (single isomer, unassigned) [65A*] |  |  | < 1000 nM |  | < 1000 nM |  |  | 

The next lines start with results.

Row | IC50 ([1]; Table B, activity class) | IC50 ([1]; Table C) | IC50 ([2]; Table B, activity class) | IC50 ([2]; Table C) | IC50 ([3]; Table B, activity class) | IC50 ([3]; Table C) | fold improvement in binding activity (SPA IC50) ([3]; relative to Compound 27A*) | SMILES | fold increase in binding activity (SPA IC50) ([3]; relative to Compound 39A)
12 | < 10 nM | 5.6 nM | < 1000 nM | 200 nM | < 1000 nM | 550 nM |  | C[C@@H]1CCN(c2nnn[nH]2)C[C@H](NC(=O)N(C)c2ccc(C(F)(F)F)cc2F)C1 (single isomer, unassigned) [13A*] | 
13 | 10 to 100 nM |  | 1000 to 2000 nM |  | < 1000 nM |  |  | C[C@@H]1CCN(c2nnn[nH]2)C[C@H](NC(=O)N(C)c2ccc(OC(F)(F)F)c(F)c2)C1 (single isomer, unassigned) [14A*] | 
14 | < 10 nM |  | < 1000 nM |  | < 1000 nM |  |  | C[C@@H]1CCN(c2nnn[nH]2)C[C@H](NC(=O)N(C)c2ccc(OC(F)F)c(F)c2)C1 (single isomer, unassigned) [15A*] | 
15 | < 10 nM |  | 1000 to 2000 nM |  | < 1000 nM |  |  | C[C@@H]1CCN(c2nnn[nH]2)C[C@H](NC(=O)N(C)c2ccc(OC(F)F)c(OC(F)F)c2)C1 (single isomer, unassigned) [16A*] | 
16 | < 10 nM |  | 1000 to 2000 nM |  | < 1000 nM |  |  | C[C@@H]1CCN(c2nnn[nH]2)C[C@H](NC(=O)N(C)c2ccc(OC(F)F)cc2F)C1 (single isomer, unassigned) [17A*] | 
17 | < 10 nM |  | < 1000 nM |  | < 1000 nM |  |  | C[C@@H]1CCN(c2nnn[nH]2)C[C@H](NC(=O)N(C)c2ccc(C(F)F)cc2F)C1 (single isomer, unassigned) [18A*] | 
18 | < 10 nM |  | < 1000 nM |  | < 1000 nM |  |  | C[C@@H]1CCN(c2nnn[nH]2)C[C@H](NC(=O)N(C)c2c(F)cc(OC(F)F)cc2F)C1 (single isomer, unassigned) [19A*] | 
19 | < 10 nM |  | < 1000 nM |  | < 1000 nM |  |  | C[C@@H]1CCN(c2nnn[nH]2)C[C@H](NC(=O)N(C)c2c(F)cc(C3CC3)cc2F)C1 (single isomer, unassigned) [20A*] | 
20 | 10 to 100 nM |  | < 1000 nM |  | < 1000 nM |  |  | C[C@@H]1CCN(c2nnn[nH]2)C[C@H](NC(=O)N(C)c2ccc(C(F)(F)F)c(F)c2F)C1 (single isomer, unassigned) [21A*] | 
21 | < 10 nM |  | < 1000 nM |  | < 1000 nM |  |  | C[C@@H]1CCN(c2nnn[nH]2)C[C@H](NC(=O)N(C)c2ccc(C3CC3)c(F)c2)C1 (single isomer, unassigned) [23A*] | 
22 | < 10 nM | 7.9 nM | < 1000 nM | 260 nM | < 1000 nM | 110 nM |  | C[C@@H]1CCN(c2nnn[nH]2)C[C@H](NC(=O)N(C)c2ccc(OC(F)(F)F)cc2F)C1 (single isomer, unassigned) [24A*] | 
23 | 10 to 100 nM |  | > 3000 nM |  | < 1000 nM |  |  | C[C@@H]1CCN(c2nnn[nH]2)C[C@H](NC(=O)N(C)c2ccc(OC(F)(F)F)c(F)c2F)C1 (single isomer, unassigned) [26A*] | 
24 | 10 to 100 nM |  | 1000 to 2000 nM |  | < 1000 nM |  |  | C[C@@H]1CCN(c2nnn[nH]2)C[C@H](NC(=O)N(C)c2ccc(OC(F)F)c(F)c2F)C1 (single isomer, unassigned) [40A*] | 
25 | < 10 nM |  | < 1000 nM |  | < 1000 nM |  |  | C[C@@H]1CCN(c2nnn[nH]2)C[C@H](NC(=O)N(C)c2c(F)cc(OC(F)(F)F)cc2F)C1 (single isomer, unassigned) [41A*] | 
26 | < 10 nM |  | < 1000 nM |  | < 1000 nM |  |  | CCN(C(=O)N[C@@H]1C[C@H](C)CCN(c2nnn[nH]2)C1)c1ccc(OC(F)(F)F)cc1 (single isomer, unassigned) [43A*] | 
